Like-named read-outs stand apart in the source and are kept apart here.
Experiments:
mouse brain MAGL = molecular target: T1, mouse brain MAGL (Mus musculus, UniProt O35678); test: MAGL activity in mouse brain membranes; format: biochemical; conditions: read-out: MAGL IC50
T1 sequence (O35678 1-303): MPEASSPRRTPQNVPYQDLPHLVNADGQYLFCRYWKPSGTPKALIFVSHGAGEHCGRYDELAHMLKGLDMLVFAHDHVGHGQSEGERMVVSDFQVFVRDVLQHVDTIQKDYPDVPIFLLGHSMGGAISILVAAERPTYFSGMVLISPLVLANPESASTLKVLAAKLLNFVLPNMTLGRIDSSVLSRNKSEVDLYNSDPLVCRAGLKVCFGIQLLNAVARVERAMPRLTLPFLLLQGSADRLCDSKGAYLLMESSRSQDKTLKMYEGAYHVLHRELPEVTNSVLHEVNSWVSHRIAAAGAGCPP

mice = conditions: mouse
CB1 [1] = molecular target: T2, CB1 (Mus musculus, UniProt P47746); test: biochemical; format: binding
T2 sequence (P47746 whole entry): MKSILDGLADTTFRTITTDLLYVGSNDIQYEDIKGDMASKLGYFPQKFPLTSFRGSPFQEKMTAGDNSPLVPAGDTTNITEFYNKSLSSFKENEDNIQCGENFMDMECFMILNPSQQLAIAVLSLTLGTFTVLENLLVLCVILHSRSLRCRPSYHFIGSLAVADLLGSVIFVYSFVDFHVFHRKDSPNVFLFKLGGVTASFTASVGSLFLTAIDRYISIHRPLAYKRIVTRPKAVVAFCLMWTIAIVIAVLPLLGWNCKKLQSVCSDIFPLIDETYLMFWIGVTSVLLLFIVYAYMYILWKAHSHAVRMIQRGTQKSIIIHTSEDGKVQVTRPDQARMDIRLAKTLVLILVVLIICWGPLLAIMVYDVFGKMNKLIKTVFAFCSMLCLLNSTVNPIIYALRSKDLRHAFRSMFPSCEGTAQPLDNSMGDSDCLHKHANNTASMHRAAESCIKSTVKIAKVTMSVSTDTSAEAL

[2] = test system: CB1 -/- mouse brain membranes; format: biochemical
CB1 [3] = molecular target: T2, CB1; test: biochemical
[4] = molecular target: eCB1 (CB1 overexpressed in HEK293 cells) (Mus musculus, UniProt P47746); format: binding
Chain of eCB1 (CB1 overexpressed in HEK293 cells) (P47746 whole entry): as above

SMILES: CCCCCCCCCCCCP(=O)(OCC)Oc1ccc(C#N)cc1 (centres unmarked) [OP 4]
- IC50 (mouse brain MAGL; substrate 2-AG): 70 nM
- IC50 (mouse brain MAGL; substrate [14C]1-oleoylglycerol): 70 nM
- In vivo effectiveness in modulating behavior and brain 2-AG and AA levels (mice): very effective in vivo in all respects

SMILES: CCCCCCC(C)(C)c1ccc([C@@H]2C[C@H](O)CC[C@H]2CCCO)c(O)c1 [[^3H]CP55940]
- Kd (CB1 [1]): 0.86 nM

SMILES: CCCCCCCCCCCCS(=O)(=O)F [OS 9]
- In vivo effectiveness in modulating behavior and brain 2-AG and AA levels (mice): same in vivo effects as OP 1 and OP 4

SMILES: CCCCCCCCCCCCP(=O)(OCC)Oc1nc(Cl)c(Cl)cc1Cl (centres unmarked) [OP 3]
- In vivo effectiveness in modulating behavior and brain 2-AG and AA levels (mice): not effective in vivo

SMILES: CCCCC/C=C\C/C=C\C/C=C\C/C=C\CCCC(=O)OC(CO)CO [2-AG, 2-arachidonoylglycerol]
- Stimulation of GTPγS binding in CB1 -/- membranes [2]: significant
- EC50 (CB1 [3]; EC50 for stimulation of GTPγS binding): 1000 nM
- EC50 (CB1 [3]; EC50 of 2-AG for stimulation of GTPγS binding after preincubation with OP 1): 300 nM

SMILES: CCOP(=O)(OCC)Oc1nc(Cl)c(Cl)cc1Cl [OP 7, chlorpyrifos oxon]
- Sensitivity of eCB1 [3H]CP55940 binding [4]: not sensitive

SMILES: CCCCCCCCS(=O)(=O)F [OS 10]
- In vivo effectiveness in modulating behavior and brain 2-AG and AA levels (mice): same in vivo effects as OP 1 and OP 4
